Reference: patent US12419869B2, “Methods of treating multiple sclerosis” (Vanda Pharmaceuticals Inc., priority 2021, dated 2025)

Experiments:
[1] = Pharmacokinetics in hepatic impairment (Child-Pugh class A, B, C); assay type: in vivo, human
[2] = tested on: CYP3A4 and UGT1A1; test: In vitro assessments and limited clinical data, strong CYP3A4 and UGT1A1 inducers; settings: e.g., rifampin, phenytoin, carbamazepine
Description: It is unclear whether this decrease in ponesimod systemic exposure would be considered of clinical relevance. Coadministration of PONVORY with strong CYP3A4 and UGT1A1 inducers is not recommended.

[3] = tested on: peripheral blood lymphocyte count; test: Peripheral blood lymphocyte count in healthy volunteers; assay type: in vivo, human
Procedure: In healthy volunteers, PONVORY induces a dose-dependent reduction of the peripheral blood lymphocyte count from a single dose of 5 mg onwards, with the greatest reduction observed 6 hours post-dose, caused by reversible sequestration of lymphocytes in lymphoid tissues. After 7 daily doses of 20 mg, the greatest decrease in absolute mean lymphocyte count was to 26% of baseline (650 cells/μL), observed 6 hours after administration. Peripheral blood B cells [CD19+] and T cells [CD3+], T-helper [CD3+CD4+], and T-cytotoxic [CD3+CD8+] cell subsets are all affected, while NK cells are not. T-helper cells were more sensitive to the effects of ponesimod than T-cytotoxic cells.

[4] = tested on: rat; test: Micronucleus in rat; settings: in vivo
Description: (§1) Ponesimod was negative in a battery of in vitro (Ames, chromosomal aberration in mammalian cells) and in vivo (micronucleus in rat) assays.

[5] = tested on: dogs; test: Oral toxicity studies of 13 to 52 weeks in dogs, coronary arterial lesions; assay type: in vivo, dog; settings: dogs
Procedure: (§2) At the NOAEL (2 mg/kg/day) for these findings, plasma exposures (AUC) were approximately 2 times that expected in humans at the RHD.

[6] = as above; assay type: in vivo, dog; settings: dog, in vivo; 13 to 52 weeks oral
Procedure: as §2

[7] = Coadministration with oral hormonal contraceptive; assay type: in vivo, human; settings: 1 mg norethisterone/norethindrone and 35 μg ethinyl estradiol
Description: Therefore, concomitant use of ponesimod is not expected to decrease the efficacy of hormonal contraceptives. No interaction studies have been performed with oral contraceptives containing other progestogens: however, an effect of ponesimod on their exposure is not expected.

[8] = tested on: pregnant rats; test: Embryofetal development study in pregnant rats, oral; assay type: in vivo
Description: Maternal toxicity was not observed, indicating a selective effect on the fetus.

[9] = tested on: heart rate; test: Heart rate pharmacodynamics, dose dependence; parameters: species or system human; settings: in vivo
Procedure: PONVORY causes a transient dose-dependent reduction in heart rate (HR) and AV conduction delays upon treatment initiation [see Warnings and Precautions (5.2)]. The heart rate decreases plateaued at doses greater than or equal to 40 mg [2 times the recommended maintenance dosage], and bradyarrhythmic events (AV blocks) were detected at a higher incidence under PONVORY treatment, compared to placebo. This effect starts within the first hour of dosing and is maximal at 2-4 hours post-dose. HR generally returns to pre-dose values by 4-5 hours post-dose on Day 1, and the effect diminishes with repeated administration. indicating tolerance.

[10] = tested on: mammalian cells; test: Chromosomal aberration in mammalian cells; assay type: cell-based; settings: in vitro
Description: as §1

[11] = Excretion after single oral administration of 14C-ponesimod; assay type: in vivo, human; settings: single oral 14C-ponesimod
Description: Following a single oral administration of ^14C-ponesimod, 57% to 80% of the dose was recovered in feces (16% as unchanged ponesimod), and 10% to 18% in urine (no unchanged ponesimod).

[12] = Animal studies of blood-brain-barrier passage; assay type: in vivo
Description: (§3) Ponesimod is highly bound to plasma proteins (>99%) and is mainly (78.5%) distributed in the plasma fraction of whole blood.

[13] = in vitro; assay type: in vitro ADME; settings: human, plasma
Description: as §3

[14] = tested on: plasma proteins; test: in vitro; assay type: in vitro ADME
Description: as §3

[15] = Pharmacokinetics in renal impairment; assay type: in vivo, human; settings: moderate or severe renal impairment
Description: No dose adjustment is necessary in patients with renal impairment. […] The effect of dialysis on the PK of ponesimod has not been studied. Due to the high plasma protein binding (greater than 99%) of ponesimod, dialysis is not expected to alter the total and unbound ponesimod concentration, and no dose adjustments are anticipated based on these considerations.

[16] = clinical; settings: human, in vivo
Procedure: Steady-state levels are approximately 2.0 to 2.6-fold greater than with a single dose, and are achieved following 3 days of administration of the maintenance dose of ponesimod.
The pharmacokinetics of ponesimod are similar in healthy subjects and patients with multiple sclerosis, with 25% inter-subject variability across studies.
The time to reach maximum plasma concentration of ponesimod is 2-4 hours post-dose.
Following IV administration in healthy subjects, the steady-state volume of distribution of ponesimod is 160 L.

[17] = tested on: male and female rats; test: Fertility studies in male and female rats, oral; assay type: in vivo, rat
Procedure: Plasma ponesimod exposures (AUC) at the highest dose tested were approximately 10 (males) and 30 (females) times that in humans at the recommended human dose (RHD) of 20 mg/day.

[18] = Ames assay; assay type: cell-based; settings: in vitro
Description: as §1

SMILES: CCC/N=C1\S/C(=C\c2ccc(OC[C@H](O)CO)c(Cl)c2)C(=O)N1c1ccccc1C [Ponesimod, (R)-5-[3-chloro-4-(2,3-dihydroxy-propoxy)-benz[Z]ylidene]-2-([Z]-propylimino)-3-o-tolyl-thiazolidin-4-one]
- Increase of AUC0-∞ vs healthy subjects ([1]; mild hepatic impairment (Child-Pugh A)): 1.3 fold
- Change in Cmax vs healthy subjects ([1]; mild, moderate, or severe hepatic impairment): no change
- Increase of AUC0-∞ vs healthy subjects ([1]; moderate hepatic impairment (Child-Pugh B)): 2.0 fold
- Increase of AUC0-∞ vs healthy subjects ([1]; severe hepatic impairment (Child-Pugh C)): 3.1 fold
- Effect of strong CYP3A4 and UGT1A1 inducers on systemic exposure [2]: may decrease the systemic exposure
- Absolute mean lymphocyte count at greatest decrease ([3]; after 7 daily doses of 20 mg): 650 cells/μL
- Greatest decrease in absolute mean lymphocyte count, % of baseline ([3]; after 7 daily doses of 20 mg, 6 hours after administration): 26 % of baseline
- Time of greatest reduction of peripheral blood lymphocyte count ([3]; post-dose, healthy volunteers): 6 h
- Micronucleus in rat result [4]: negative
- Plasma exposures (AUC) at NOAEL relative to humans at RHD [5]: approximately 2 times
- NOAEL [6]: 2 mg/kg/day
- Pharmacokinetic interaction with oral hormonal contraceptive [7]: no clinically relevant pharmacokinetic interaction
- Embryofetal findings in rats ([8]; 0, 1, 10, or 40 mg/kg/day oral during organogenesis, at all but the lowest dose): increased incidences of fetal malformations
- No-effect dose for adverse effects on embryofetal development in rats ([8]; rat, in vivo): 1 mg/kg/day
- Plasma exposure (AUC) at no-effect dose vs humans at RHD 20 mg/day ([8]; rats): lower than that in humans
- Dose at which heart rate decreases plateaued [9]: greater than or equal to 40 mg
- Chromosomal aberration in mammalian cells result [10]: negative
- Dose recovered in feces as unchanged ponesimod [11]: 16%
- Blood-brain-barrier passage [12]: readily crosses the blood-brain-barrier
- fraction unbound [13]: < 0.01
- Distribution in the plasma fraction of whole blood [14]: 78.5%
- Plasma protein binding ([14]; human, plasma): greater than 99%
- Change in Cmax and AUC vs normal renal function [15]: no significant changes
- Effect of food on pharmacokinetics [16]: does not have a clinically relevant effect
- Influence of age (range: 17 to 65 years) on PK [16]: not identified to significantly influence
- Influence of gender on pharmacokinetics [16]: no clinically significant influence
- Inter-subject variability of pharmacokinetics across studies [16]: 25%
- Pharmacokinetic differences between Japanese and Caucasian subjects [16]: No clinically relevant pharmacokinetic differences
- Time to steady state on maintenance dose [16]: 3 days
- clearance ([16]; iv): 63.3 mL/min
- Increase of Cmax and AUC with dose ([16]; po): approximately dose-proportionally
- Steady-state levels relative to a single dose ([16]; po): 2.0-2.6 fold
- Time to reach maximum plasma concentration ([16]; po): 2 to 4 h
- half-life ([16]; po): ~33 h
- bioavailability ([16]; po, 10 mg): 84%
- Effects on fertility in rats ([17]; 0, 10, 30, or 100 mg/kg/day oral): no effects on fertility
- Plasma exposure (AUC) at highest dose relative to humans at RHD, females ([17]; 100 mg/kg/day): ~30 times
- Plasma exposure (AUC) at highest dose relative to humans at RHD, males ([17]; 100 mg/kg/day): approximately 10 times
- Ames assay result [18]: negative
